The nature of series [1]: Cytotoxicity against human HuH7 cells assessed as reduction in cell viability incubated for 48 hrs by cellTiter-Glo assay. Format: cell-based, Huh-7.
Series [2] deals with Zika virus. Briefly: Antiviral activity against Zika virus H/PF/2013 infected in human HuH7 cells assessed as reduction in viral titer incubated for 24 hrs by plague assay. Format: functional, organism-based.
The nature of series [3]: Selectivity index, ratio of CC50 for cytotoxicity against human HuH7 cells to EC50 for antiviral activity against H/PF/2013 Zika virus infected in human HuH7 cells. Format: toxicity, cell-based. The settings on record: for selectivity ratio: HuH7 cells, read-out: Ratio CC50/EC50.
In series [4] the target is T1, Nonstructural protein 3 (Zika virus, UniProt A0A024AXB9). In words: Inhibition of N-terminal unlinked Zika virus NS2B (45 to 96 residues) - NS3 (1 to 177 residues) protease domain expressed in Escherichia coli Bl21(DE3) using Bz-nKRR-AMC as substrate preincubated for 15 mins followed by substrate addition and measured by fluorescence based assay.
The target in series [5] is T1, Nonstructural protein 3. Briefly: Inhibition of N-terminal His-tagged Zika virus NS2B (49 to 95 residues) - NS3 (1 to 185 residues) protease domain expressed in Escherichia coli Bl21(DE3) using TAMRA-RRRRSAG-GXL570 as substrate preincubated for 30 mins followed by substrate addition measured after 1 hr by fluorescence based assay.
The nature of series [6]: Cytotoxicity against human A549 cells assessed as reduction in cell viability incubated for 42 hrs by WST-8 assay. It is filed as cell-based.
A short description of series [7]: Selectivity index, ratio of EC50 of antiviral activity against Zika virus infected in human A549 cells to IC50 of inhibition of N-terminal His6-tagged Zika virus NS2B (49 to 95 residues) - NS3 (1 to 185 residues) protease domain expressed in Escherichia coli Bl21(DE3). Format: toxicity.
Series [8] can be described thus: Selectivity index, ratio of EC50 of antiviral activity against Zika virus infected in human HuH7 cells to IC50 of inhibition of N-terminal unlinked Zika virus NS2B (45 to 96 residues) - NS3 (1 to 177 residues) protease domain expressed in Escherichia coli Bl21(DE3). It is filed as toxicity.
Series [9] concerns the target T1, Nonstructural protein 3. In words: Inhibition of N-terminal His-tagged Zika virus NS2B (46 to 99 residues) - NS3 (1 to 187 residues) protease domain expressed in Rosetta2-(DE3) assessed as inhibitory constant using Boc-Gly-Arg-Arg-AMC as substrate and measured for 10 mins by fluorescence based assay.
Series [10] deals with T1, Nonstructural protein 3. In words: Inhibition of N-terminal His6-tagged Zika virus NS2B (46 to 99 residues) - NS3 (1 to 187 residues) protease domain expressed in Rosetta2-(DE3) using Boc-Gly-Arg-Arg-AMC as substrate preincubated for 10 mins followed by substrate addition and measured for 6 mins by fluorescence based assay.
Series [11] deals with Nonstructural protein 3 (Zika virus) (UniProt A0A024AXB9). Briefly: Non-competitive inhibition of N-terminal unlinked Zika virus NS2B (45 to 96 residues) - NS3 (1 to 177 residues) protease domain expressed in Escherichia coli Bl21(DE3) using Bz-nKRR-AMC as substrate preincubated for 30 mins followed by substrate addition and measured for every 60 sec over 12 mins by fluorescence based Lineweaver-burk plot analysis.

Series [12] deals with T1, Nonstructural protein 3. Briefly: Inhibition of N-terminal linked Zika virus NS2B (45 to 96 residues) - NS3 (1 to 177 residues) protease domain expressed in Escherichia coli Bl21(DE3) using Bz-nKRR-AMC as substrate preincubated for 15 mins followed by substrate addition and measured by fluorescence based assay.
Series [13] concerns Zika virus. In words: Antiviral activity against Zika virus. It is filed as functional, organism-based.
The target of series [14] is T1, Nonstructural protein 3. Briefly: Inhibition of N-terminal His6-tagged Zika virus NS2B (49 to 95 residues) - NS3 (1 to 170 residues) protease domain expressed in Escherichia coli Bl21(DE3) using Bz-Nle-Lys-Lys-Arg-AMC as substrate preincubated for 10 mins followed by substrate addition measured after 10 mins by fluorescence based assay.
Series [15] deals with T1, Nonstructural protein 3. Briefly: Inhibition of N-terminal His6-tagged Zika virus NS2B (45 to 96 residues) - NS3 (1 to 177 residues) protease domain expressed in Escherichia coli Bl21(DE3) using Bz-nKRR-AMC as substrate preincubated for 30 mins in presence of bZipro and measured for 60 sec over 10 mins by fluorescence based assay.
The mark [16] stands for this setting: Zika virus, H/PF/2013, Huh-7, 24 h, read-out: EC50.

Activity calls are given as the source filed them. No cut-off for these calls is given here.

T1 sequence (A0A024AXB9 whole entry, the tested form may be a part): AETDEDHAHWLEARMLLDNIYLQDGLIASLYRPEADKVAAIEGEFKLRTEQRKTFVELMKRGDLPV
Sequence of Nonstructural protein 3 (Zika virus) (A0A024AXB9 as listed by the source): as the sequence (A0A024AXB9 whole entry, the tested form may be a part) above

In general, CC50 refers to the concentration that lowers cell viability or growth by half. One may read the EC50 as the concentration giving half of the maximal effect. Usually IC50 stands for the concentration at which inhibition is half-maximal. Turning to `Cn1c2ccc(Br)cc2c2cc(-c3cccc(C(=N)N)c3)ccc21`, in series [1], the 50% cytotoxic concentration (CC50) at 48 h stood at 6.57 µM. Besides, the 50% effective concentration (EC50) in series [2] (setting [16]) turned out to be 1.35 µM. Further, the selectivity ratio in series [3] came to 5.42. Further, in series [4], 13.9 µM corresponded to half-maximal inhibition (IC50).

As for `O=C1C=C/C(=N/Nc2ccc([N+](=O)[O-])cc2Cl)C=C1C(=O)Nc1cccc(Cl)c1`, the IC50 in series [5] was determined as 0.38 µM. For the same compound, in series [6], the CC50 at 42 h was found to be 48.8 µM. Moreover, the “Selectivity Index” value in series [7] was 48.

Turning to `N=C(N)c1cccc(-c2ccc3c(c2)c2cc(Br)ccc2n3S(=O)(=O)c2cccc(C(=N)N)c2)c1`, the CC50 at 48 h in series [1] stood at 35.7 µM. Moreover, in series [8], the Selectivity Index lay within 1 to 10. Further, the EC50 in series [2] (setting [16]) was 5.9 µM. Further, in [3], the selectivity ratio was 4.2. In addition, in series [4], the IC50 came to 9.19 µM.

Broadly, the Ki is the dissociation constant of the complex between target and ligand, obtained from inhibition or displacement. `COc1ccc(Cl)c2sc(NC(=O)c3ccccc3NS(=O)(=O)c3ccc(C)cc3)nc12`: in [9], the inhibitory constant (Ki) was 9 µM. Also, in series [10], the half-maximal inhibitory concentration (IC50) worked out at 4.1 µM.

In the case of `N=C(N)c1cccc(S(=O)(=O)n2c3ccc(Br)cc3c3cc(Br)ccc32)c1`, the 50% cytotoxic concentration (CC50) at 48 h in series [1] amounted to 6.58 µM. In [2] (setting [16]), the EC50 worked out at 3.26 µM. Also, the selectivity ratio in series [3] amounted to 4.14. In [4], the midpoint of inhibition, the IC50, lay at 14.2 µM.

As to `COc1cccc(S(=O)(=O)n2c3ccc(Br)cc3c3cc(-c4cccc(C(=N)N)c4)ccc32)c1`, the half-maximal cytotoxic concentration (CC50) at 48 h in [1] worked out at 5.22 µM. For the same compound, the EC50 entry in [2] is on record as “Not Active”. In series [3], the “Ratio CC50/EC50” value is “Not Active”. This compound showed a 50% inhibitory concentration (IC50) in [4] of 8.1 µM.

With `COc1cccc(Cn2c3ccc(-c4cccc(C(=N)N)c4)cc3c3cc(-c4cccc(C(=N)N)c4)ccc32)c1`, the CC50 at 48 h in [1] worked out at 22.7 µM. Further, the Selectivity Index in series [8] is 1 to 10. Besides, the EC50 in series [2] (setting [16]) was found to be 6.37 µM. In addition, the selectivity ratio in series [3] came to 3.4. The compound further registered a half-inhibitory concentration (IC50) in [4] of 1.75 µM.

Turning to `N=C(N)c1cccc(Cn2c3ccc(Br)cc3c3cc(Br)ccc32)c1`, the CC50 at 48 h in [1] was 12.8 µM. Besides, the EC50 in series [2] (setting [16]) worked out at 5.09 µM. Also, the selectivity ratio in [3] is 2.51. This compound showed a half-maximal inhibitory concentration (IC50) in series [4] of 25.6 µM.

`Cn1c2ccc(-c3cccc(C(=N)N)c3)cc2c2cc(-c3cccc(C(=N)N)c3)ccc21`: in [11], the inhibition result was “Active”. Further, in series [1], the CC50 at 48 h came out at 47.5 µM. Further, the “Selectivity Index” value in series [8] was 3. Besides, in [2] (setting [16]), the EC50 stood at 1.25 µM. Also, the half-maximal inhibitory concentration (IC50) was determined as 3.65 µM in [12] and 0.52 µM in series [4]. The selectivity ratio in series [3] was 38.

Take `CO[C@@H]1[C@@H](OC(N)=O)[C@@H](O)[C@H](Oc2ccc3c(O)c(NC(=O)c4ccc(O)c(CC=C(C)C)c4)c(=O)oc3c2C)OC1(C)C` [NOVOBIOCIN]: in series [13], a half-maximal effect (EC50) was put at 62.2 µM.

For `COc1cccc(S(=O)(=O)n2c3ccc(-c4cccc(C#N)c4)cc3c3cc(-c4cccc(C(=N)N)c4)ccc32)c1`, the CC50 at 48 h in [1] was 37.9 µM. For the same compound, in series [8], the Selectivity Index lay within 1 to 10. Moreover, the EC50 in [2] (setting [16]) came to 16 µM. The selectivity ratio in series [3] came out at 2.37. The compound also had an IC50 in [4] of 0.82 µM.

As to `N=C(N)c1cccc(NC(=O)Nc2cccc(C(=N)N)c2)c1` [AMICARBALIDE], it took 47.6 µM to reach half-maximal inhibition in series [12] (IC50).

`N=C(N)c1cccc(-c2ccc3ccc(-c4cccc(C(=N)N)c4)cc3c2)c1`: the EC50 in series [2] (setting [16]) is 4.95 µM. The figures for the IC50 in [12] and in [4] were 49.5 µM and 32.5 µM, respectively.

For the compound `CC(C)C[C@H]1C(=O)N2CCC[C@H]2[C@]2(O)O[C@](NC(=O)[C@@H]3C=C4c5cccc6[nH]c(Br)c(c56)C[C@H]4N(C)C3)(C(C)C)C(=O)N12` [BROMOCRIPTINE], the midpoint of inhibition in series [14], the IC50, lay at 13 µM.

As to `COc1cccc(Cn2c3ccc(-c4cccc(C#N)c4)cc3c3cc(-c4cccc(C(=N)N)c4)ccc32)c1`, in series [1], the 50% cytotoxic concentration (CC50) at 48 h came to 3.3 µM. The EC50 in series [2] (setting [16]) came to 1.95 µM. For the same compound, the selectivity ratio in [3] stood at 2.8. The IC50 in series [4] stood at 1.91 µM.

For the compound `N=C(N)c1cccc(-c2cccc(-c3cccc(C(=N)N)c3)c2)c1`, the IC50 in series [12] worked out at 104 µM; in [4], 38.3 µM.

Consider `N#Cc1cccc(-c2ccc3c(c2)c2cc(-c4cccc(C#N)c4)ccc2n3Cc2cccc(C(=N)N)c2)c1`, for which the half-maximal cytotoxic concentration (CC50) at 48 h in [1] came out at 7.48 µM. Moreover, the EC50 entry in [2] is on record as “Not Active”. This compound showed a half-maximal inhibitory concentration (IC50) in series [4] of 14.9 µM.

Consider `N#Cc1cccc(-c2ccc3c(c2)c2cc(-c4cccc(C#N)c4)ccc2n3S(=O)(=O)c2cccc(C(=N)N)c2)c1`, for which the half-maximal cytotoxic concentration (CC50) at 48 h in series [1] was determined as 3.35 µM. Moreover, the concentration giving a half-maximal response (EC50) entry in series [2] is recorded as “Not Active”. Also, the IC50 in series [4] was determined as 3.5 µM.

Turning to `COc1ccc(S(=O)(=O)n2nc(OC(=O)c3cccc(-c4ccccc4Cl)c3)cc2N)cc1`, in [15], the IC50 stood at 0.1 µM.

Regarding `Cn1c2ccc(-c3cccc(C#N)c3)cc2c2cc(-c3cccc(C(=N)N)c3)ccc21`, the CC50 at 48 h in series [1] stood at 6.25 µM. In addition, the EC50 result in series [2] is recorded as “Not Active”. This compound had an IC50 in series [4] of 1.7 µM.

Turning to `COc1cccc(Cn2c3ccc(Br)cc3c3cc(-c4cccc(C(=N)N)c4)ccc32)c1`, the half-maximal cytotoxic concentration (CC50) at 48 h in [1] was 5.3 µM. The concentration giving a half-maximal response (EC50) in series [2] (setting [16]) was found to be 2.27 µM. Besides, in [3], the selectivity ratio came to 2.3. The compound also gave an IC50 in [4] of 4.04 µM.

As to `COc1cccc(S(=O)(=O)n2c3ccc(-c4cccc(C(=N)N)c4)cc3c3cc(-c4cccc(C(=N)N)c4)ccc32)c1`, the CC50 at 48 h in series [1] was above 100 µM. In addition, in series [8], the Selectivity Index was 1 to 10. Besides, the EC50 in series [2] (setting [16]) was determined as 23.8 µM. Also, the selectivity ratio in [3] is above 4. Besides, half-maximal inhibition in [4] (IC50) required 0.99 µM.

The values are drawn from ChEMBL document CHEMBL4406817, “Cell-active carbazole derivatives as inhibitors of the zika virus protease” (Eur J Med Chem, 2019).
